Test results: patent US7138361B2, “Herbicidal heterocycles” (E. I. du Pont de Nemours and Company, priority 2000, dated 2006)

Tests used:
Assay in all cases: Test C preemergence
Assay type in all cases: in vivo
[1] = system: Nightshade
[2] = system: Sunflower
[3] = system: Surinam grass (Brachiaria decumbens)
How it was run: (§1)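 Seeds are planted and treated before emergence; for the postemergence test, plants at 1- to 4-leaf stage (2–18 cm) receive the same formulation, a solvent blend containing surfactant. Plants stay in the greenhouse 12–14 days, then response is scored visually from 0 (none) to 100 (complete control).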

[4] = system: bermudagrass (Cynodon dactylon)
How it was run: as §1

[5] = system: cocklebur (Xanthium strumarium)
How it was run: as §1

[6] = system: common ragweed (Ambrosia elatior)
How it was run: as §1

[7] = system: corn (Zea mays)
How it was run: as §1

[8] = system: crabgrass (Digitaria sanguinalis)
How it was run: as §1

[9] = system: giant foxtail (Setaria faberii)
How it was run: as §1

[10] = system: goosegrass (Eleusine indica)
How it was run: as §1

[11] = system: johnsongrass (Sorghum halepense)
How it was run: as §1

[12] = system: kochia (Kochia scoparia)
How it was run: as §1

[13] = system: lambsquarters (Chenopodium album)
How it was run: as §1

[14] = system: morningglory (Ipomoea hederacea)
How it was run: as §1

[15] = system: pigweed (Amaranthus retroflexus)
How it was run: as §1

[16] = system: soybean (Glycine max)
How it was run: as §1

[17] = system: velvetleaf (Abutilon theophrasti)
How it was run: as §1

[18] = system: woolly cupgrass (Eriochloa villosa)
How it was run: as §1

[19] = system: yellow nutsedge (Cyperus esculentus)
How it was run: as §1

[20] = system: Nightshade; details: Rate 250 g/ha, visual evaluation after 12 to 14 days
[21] = Rate 62 g/ha, scale 0 to 100, 0 no effect, 100 complete control
[22] = Preemergence, Rate 500 g/ha, scale 0 to 100
[23] = preemergence, Rate 250 g/ha, visual evaluation after 12 to 14 days
[24] = preemergence, Rate 125 g/ha, scale 0 to 100, 0 no effect, 100 complete control

SMILES: CC(C)(C)c1ccn(C2CCN(c3cccc(Br)c3)C2=O)n1 (stereo not shown) [Compound 33]
- Plant response rating, Nightshade [1, 21]: 0
- Plant response rating, Nightshade ([1]; Rate 500 g/ha, scale 0 to 100): 100
- Plant response rating, Sunflower [2, 21]: 0
- Plant response rating, Sunflower ([2]; Rate 500 g/ha, scale 0 to 100): 60
- Plant response rating, Surinam grass [3, 22]: 100
- Plant response rating, Surinam grass [3, 21]: 0
- Plant response rating (0 to 100), Surinam grass [3, 23]: 90
- Plant response rating, Surinam grass [3, 24]: 0
- Plant response rating, Bermudagrass [4, 22]: 100
- Plant response rating, Bermudagrass [4, 21]: 90
- Plant response rating (0 to 100 where 0 is no effect and 100 is complete control), Bermudagrass [4, 23]: 100
- Plant response rating, Bermudagrass [4, 24]: 100
- Plant response rating, Cocklebur [5, 22]: 0
- Plant response rating, Cocklebur [5, 21]: 0
- Plant response rating (0 to 100), Cocklebur [5, 23]: 0
- Plant response rating, Cocklebur [5, 24]: 0
- Plant response rating, Ragweed, Common [6, 22]: 30
- Plant response rating, Ragweed, Common [6, 21]: 0
- Plant response rating (0 to 100), Ragweed, Common [6, 23]: 0
- Plant response rating, Ragweed, Common [6, 24]: 0
- Plant response rating, Corn [7, 22]: 40
- Plant response rating, Corn [7, 21]: 0
- Plant response rating (0 to 100), Corn [7, 23]: 0
- Plant response rating, Corn [7, 24]: 0
- Plant response rating, Crabgrass [8, 22]: 100
- Plant response rating, Crabgrass [8, 21]: 80
- Plant response rating (0 to 100), Crabgrass [8, 23]: 100
- Plant response rating, Crabgrass [8, 24]: 100
- Plant response rating, Foxtail, Giant [9, 22]: 30
- Plant response rating, Foxtail, Giant [9, 21]: 50
- Plant response rating (0 to 100), Foxtail, Giant [9, 23]: 0
- Plant response rating, Foxtail, Giant [9, 24]: 100
- Plant response rating, Goosegrass [10, 22]: 100
- Plant response rating, Goosegrass [10, 21]: 80
- Plant response rating (0 to 100), Goosegrass [10, 23]: 100
- Plant response rating, Goosegrass [10, 24]: 100
- Plant response rating, Johnsongrass [11, 22]: 100
- Plant response rating, Johnsongrass [11, 21]: 0
- Plant response rating (0 to 100), Johnsongrass [11, 23]: 0
- Plant response rating, Johnsongrass [11, 24]: 0
- Plant response rating, Kochia [12, 22]: 100
- Plant response rating, Kochia [12, 21]: 100
- Plant response rating (0 to 100), Kochia [12, 23]: 100
- Plant response rating, Kochia [12, 24]: 100
- Plant response rating, Lambsquarters [13, 22]: 100
- Plant response rating, Lambsquarters [13, 21]: 100
- Plant response rating (0 to 100), Lambsquarters [13, 23]: 100
- Plant response rating, Lambsquarters [13, 24]: 100
- Plant response rating, Morningglory [14, 22]: 0
- Plant response rating, Morningglory [14, 21]: 0
- Plant response rating (0 to 100), Morningglory [14, 23]: 0
- Plant response rating, Morningglory [14, 24]: 0
- Plant response rating, Pigweed [15, 22]: 100
- Plant response rating, Pigweed [15, 21]: 0
- Plant response rating (0 to 100), Pigweed [15, 23]: 60
- Plant response rating, Pigweed [15, 24]: 0
- Plant response rating, Soybean [16, 22]: 0
- Plant response rating, Soybean [16, 21]: 0
- Plant response rating (0 to 100), Soybean [16, 23]: 0
- Plant response rating, Soybean [16, 24]: 0
- Plant response rating, Velvetleaf [17, 22]: 0
- Plant response rating, Velvetleaf [17, 21]: 0
- Plant response rating (0 to 100), Velvetleaf [17, 23]: 0
- Plant response rating, Velvetleaf [17, 24]: 0
- Plant response rating, Cupgrass, Woolly [18, 22]: 100
- Plant response rating, Cupgrass, Woolly [18, 21]: 20
- Plant response rating (0 to 100), Cupgrass, Woolly [18, 23]: 100
- Plant response rating, Cupgrass, Woolly [18, 24]: 90
- Plant response rating, Nutsedge [19, 22]: 0
- Plant response rating, Nutsedge [19, 21]: 0
- Plant response rating (0 to 100), Nutsedge [19, 23]: 0
- Plant response rating, Nutsedge [19, 24]: 0
- Plant response rating (0 to 100), Nightshade [20]: 0
